Source: the NIST ThermoML archive (doi:10.1021/je060271a)
Numbers after ± are expanded uncertainties.

Details: 323.15 K, Liquid, Vibrating tube method

CCCC(=O)OCC(COC(=O)CCC)(COC(=O)CCC)COC(=O)CCC [pentaerythritol tetrabutyrate]
Details	mass density [kg/m3]
15786 kPa	1036 ± 1.2
15818 kPa	1036 ± 1.2
15856 kPa	1036.1 ± 1.2
15888 kPa	1036 ± 1.2
15920 kPa	1036 ± 1.2
15952 kPa	1036.1 ± 1.2
15991 kPa	1036.1 ± 1.2
16024 kPa	1036.1 ± 1.2
16057 kPa	1036.1 ± 1.2
16097 kPa	1036.2 ± 1.2
16131 kPa	1036.3 ± 1.2
16164 kPa	1036.2 ± 1.2
16204 kPa	1036.3 ± 1.2
16238 kPa	1036.4 ± 1.2
16305 kPa	1036.3 ± 1.2
16381 kPa	1036.4 ± 1.2
16759 kPa	1036.6 ± 1.2
16795 kPa	1036.7 ± 1.2
16831 kPa	1036.7 ± 1.2
16875 kPa	1036.7 ± 1.2
18410 kPa	1037.7 ± 1.2
18440 kPa	1037.7 ± 1.2
18726 kPa	1037.9 ± 1.2
18756 kPa	1038 ± 1.2
19188 kPa	1038.2 ± 1.3
19252 kPa	1038.3 ± 1.3
19278 kPa	1038.4 ± 1.3
19311 kPa	1038.3 ± 1.3
19396 kPa	1038.4 ± 1.3
19436 kPa	1038.4 ± 1.3
19469 kPa	1038.4 ± 1.3
19501 kPa	1038.4 ± 1.3
19541 kPa	1038.4 ± 1.3
19574 kPa	1038.4 ± 1.3
19608 kPa	1038.4 ± 1.3
19648 kPa	1038.6 ± 1.3
19682 kPa	1038.6 ± 1.3
19970 kPa	1038.7 ± 1.3
20047 kPa	1038.7 ± 1.3
20089 kPa	1038.7 ± 1.3
20124 kPa	1038.7 ± 1.3
20159 kPa	1038.9 ± 1.3
20202 kPa	1038.8 ± 1.3
20238 kPa	1039 ± 1.3
20546 kPa	1039.1 ± 1.3
20584 kPa	1039 ± 1.3
21551 kPa	1039.8 ± 1.3
21639 kPa	1039.7 ± 1.3
21673 kPa	1039.9 ± 1.3
21714 kPa	1039.9 ± 1.3
21749 kPa	1039.8 ± 1.3
21784 kPa	1039.8 ± 1.3
21826 kPa	1039.9 ± 1.3
21862 kPa	1040 ± 1.3
21898 kPa	1040 ± 1.3
21934 kPa	1040 ± 1.3
21976 kPa	1040 ± 1.3
22011 kPa	1040 ± 1.3
22048 kPa	1040 ± 1.3
22091 kPa	1040.1 ± 1.3
22126 kPa	1040 ± 1.3
22162 kPa	1040.2 ± 1.3
22206 kPa	1040.1 ± 1.3
22243 kPa	1040.2 ± 1.3
22279 kPa	1040.1 ± 1.3
22323 kPa	1040.3 ± 1.3
22360 kPa	1040.1 ± 1.3
22398 kPa	1040.2 ± 1.3
22443 kPa	1040.4 ± 1.3
22480 kPa	1040.3 ± 1.3
22518 kPa	1040.3 ± 1.3
22563 kPa	1040.3 ± 1.3
22602 kPa	1040.4 ± 1.3
23845 kPa	1041.3 ± 1.3
23898 kPa	1041.2 ± 1.3
23944 kPa	1041.2 ± 1.3
23987 kPa	1041.3 ± 1.3
24030 kPa	1041.3 ± 1.3
24100 kPa	1041.4 ± 1.3
24135 kPa	1041.4 ± 1.3
24290 kPa	1041.4 ± 1.3
24326 kPa	1041.4 ± 1.3
24362 kPa	1041.4 ± 1.3
24397 kPa	1041.5 ± 1.3
24789 kPa	1041.8 ± 1.3
24827 kPa	1041.8 ± 1.3
24872 kPa	1041.9 ± 1.3
24910 kPa	1041.8 ± 1.3
25317 kPa	1042.1 ± 1.3
25357 kPa	1042.1 ± 1.3
25403 kPa	1042.2 ± 1.3
25442 kPa	1042.2 ± 1.3
25481 kPa	1042.2 ± 1.3
25528 kPa	1042.2 ± 1.3
25569 kPa	1042.3 ± 1.3
25608 kPa	1042.2 ± 1.3
25656 kPa	1042.3 ± 1.3
25696 kPa	1042.3 ± 1.3
25736 kPa	1042.3 ± 1.3
25784 kPa	1042.5 ± 1.3
26584 kPa	1042.8 ± 1.3
27050 kPa	1043.1 ± 1.3
27094 kPa	1043.1 ± 1.3
27148 kPa	1043.2 ± 1.3
27193 kPa	1043.3 ± 1.3
27239 kPa	1043.4 ± 1.3
27294 kPa	1043.3 ± 1.3
27340 kPa	1043.4 ± 1.3
27386 kPa	1043.3 ± 1.3
27432 kPa	1043.4 ± 1.3
27488 kPa	1043.4 ± 1.3
27535 kPa	1043.5 ± 1.3
27876 kPa	1043.7 ± 1.3
27985 kPa	1043.8 ± 1.3
28093 kPa	1043.7 ± 1.3
28151 kPa	1044 ± 1.3
28200 kPa	1043.9 ± 1.3
28250 kPa	1043.9 ± 1.3
28409 kPa	1044 ± 1.3
28460 kPa	1044.1 ± 1.3
28519 kPa	1044 ± 1.3
28562 kPa	1044.2 ± 1.3
28628 kPa	1044.1 ± 1.3
28679 kPa	1044.2 ± 1.3
28730 kPa	1044.2 ± 1.3
29066 kPa	1044.5 ± 1.3
29135 kPa	1044.4 ± 1.3
29177 kPa	1044.5 ± 1.3
29260 kPa	1044.5 ± 1.3
29301 kPa	1044.6 ± 1.3
29338 kPa	1044.7 ± 1.3
29373 kPa	1044.7 ± 1.3
29415 kPa	1044.7 ± 1.3
29449 kPa	1044.6 ± 1.3
29492 kPa	1044.7 ± 1.3
29529 kPa	1044.8 ± 1.3
29563 kPa	1044.8 ± 1.3
29598 kPa	1044.6 ± 1.3
29642 kPa	1044.9 ± 1.3
29678 kPa	1044.8 ± 1.3
29720 kPa	1044.9 ± 1.3
29756 kPa	1044.8 ± 1.3
29793 kPa	1044.8 ± 1.3
29839 kPa	1044.9 ± 1.3
30028 kPa	1045.1 ± 1.3
30074 kPa	1045.1 ± 1.3
